Assay: xn = mol fraction of the nth substance listed

Clc1ccccc1 + Cc1ccccc1
Details	viscosity [mPa·s]
293.15 K, 101 kPa, x1 = 0.0994	0.6134
293.15 K, 101 kPa, x1 = 0.2021	0.635
293.15 K, 101 kPa, x1 = 0.2979	0.6571
293.15 K, 101 kPa, x1 = 0.3973	0.6775
293.15 K, 101 kPa, x1 = 0.5013	0.7014
293.15 K, 101 kPa, x1 = 0.6023	0.7232
293.15 K, 101 kPa, x1 = 0.7024	0.7433
293.15 K, 101 kPa, x1 = 0.8007	0.7655
293.15 K, 101 kPa, x1 = 0.9047	0.786
293.15 K, 101 kPa, x2 = 0.2	0.751
293.15 K, 101 kPa, x2 = 0.4	0.709
293.15 K, 101 kPa, x2 = 0.6	0.667
293.15 K, 101 kPa, x2 = 0.8	0.626
294.55 K, 101.33 kPa, x1 = 0.2	0.6717
294.55 K, 101.33 kPa, x1 = 0.7	0.7968
294.75 K, 101.33 kPa, x1 = 0.3	0.6949
294.85 K, 101.33 kPa, x1 = 0.1	0.6367
295.05 K, 101.33 kPa, x1 = 0.4	0.7214
298.15 K, 101 kPa, x1 = 0.0994	0.5773
298.15 K, 101 kPa, x1 = 0.2021	0.5971
298.15 K, 101 kPa, x1 = 0.2979	0.6179
298.15 K, 101 kPa, x1 = 0.3973	0.6368
298.15 K, 101 kPa, x1 = 0.5013	0.6596
298.15 K, 101 kPa, x1 = 0.6023	0.6799
298.15 K, 101 kPa, x1 = 0.7024	0.6984
298.15 K, 101 kPa, x1 = 0.8007	0.7195
298.15 K, 101 kPa, x1 = 0.9047	0.7386
298.15 K, 101 kPa, x2 = 0.101	0.7515
298.15 K, 101 kPa, x2 = 0.2035	0.7315
298.15 K, 101 kPa, x2 = 0.243	0.687
298.15 K, 101 kPa, x2 = 0.3026	0.7086
298.15 K, 101 kPa, x2 = 0.4005	0.6929
298.15 K, 101 kPa, x2 = 0.45	0.646
298.15 K, 101 kPa, x2 = 0.5004	0.6721
298.15 K, 101 kPa, x2 = 0.6014	0.6486
298.15 K, 101 kPa, x2 = 0.643	0.608
298.15 K, 101 kPa, x2 = 0.7008	0.6321
298.15 K, 101 kPa, x2 = 0.803	0.577
298.15 K, 101 kPa, x2 = 0.8048	0.6088
298.15 K, 101 kPa, x2 = 0.8995	0.592
303.15 K, 101 kPa, x1 = 0.0994	0.5443
303.15 K, 101 kPa, x1 = 0.2021	0.5628
303.15 K, 101 kPa, x1 = 0.2979	0.5824
303.15 K, 101 kPa, x1 = 0.3973	0.5999
303.15 K, 101 kPa, x1 = 0.5013	0.6212
303.15 K, 101 kPa, x1 = 0.6023	0.6405
303.15 K, 101 kPa, x1 = 0.7024	0.6579
303.15 K, 101 kPa, x1 = 0.8007	0.6779
303.15 K, 101 kPa, x1 = 0.9047	0.6957
303.15 K, 101 kPa, x2 = 0.0961	0.6999
303.15 K, 101 kPa, x2 = 0.101	0.7125
303.15 K, 101 kPa, x2 = 0.193	0.6791
303.15 K, 101 kPa, x2 = 0.2035	0.6925
303.15 K, 101 kPa, x2 = 0.2907	0.6641
303.15 K, 101 kPa, x2 = 0.3026	0.6713
303.15 K, 101 kPa, x2 = 0.3894	0.6454
303.15 K, 101 kPa, x2 = 0.4005	0.6547
303.15 K, 101 kPa, x2 = 0.4889	0.63
303.15 K, 101 kPa, x2 = 0.5004	0.637
303.15 K, 101 kPa, x2 = 0.5893	0.6109
303.15 K, 101 kPa, x2 = 0.6014	0.6131
303.15 K, 101 kPa, x2 = 0.6906	0.5935
303.15 K, 101 kPa, x2 = 0.7008	0.5992
303.15 K, 101 kPa, x2 = 0.7928	0.5753
303.15 K, 101 kPa, x2 = 0.8048	0.577
